From patent EP0567613B1, “COMPOSITIONS FOR THERAPY AND PREVENTION OF CANCER” (The Government of the United States of America, as …, priority 1991, dated 1993)
Like-named read-outs stand apart in the source and are kept apart here.

Tests used:
[1] = system: DU145; test: Tumor cell growth / proliferation; format: cell-based; conditions: Homo sapiens
Procedure: (§1) Studies of depth were performed with two androgenindependent human prostate adenocarcinoma cell lines, PC3 and DU145, established from bone and brain metastases, respectively.

[2] = system: Prostate Adenocarcinoma PC3; test: Tumor cell growth / proliferation; format: cell-based; conditions: Homo sapiens
Procedure: as §1

[3] = system: myc; test: Northern blot analysis of myc mRNA in HL-60; format: cell-based, human; conditions: HL-60, NaPA 0.8 mg/ml
Procedure: Cytoplasmic RNA (20 µg/lane) was subjected to Northern blot analysis using ^32P-labeled specific DNA probes. Ethidium bromide-stained […] indicates the relative amounts of total RNA in each lane. Figure A. Induction of a P2 expression in 10T1/2 cells. […] Figure B. Kinetics of myc inhibition and HLA-A induction in HL-60. […] Figure C. Dose-dependent and specificity of effect.
In HL-60, cell transformation has been linked to myc amplification and overexpression, and differentiation would typically require down regulation of myc expression. [Collins, S.J. The HL-60 promyelocytic leukemia cell line: Proliferation, differentiation, and cellular oncogene expression. Blood. 70:1233-1244 (1987)]. […] The 32P-labeled probes used were myc 3rd exon (Oncor) and HLA-A3 Hind III/EcoRI fragment. […] This occurred within 4 hours of treatment, preceding the phenotypic changes detectable by 48 hrs, approximately two cell cycles, after treatment. Similar kinetics of myc inhibition have been reported for other differentiation agents such as dimethyl sulfoxide, sodium butyrate, bromodeoxyuridine, retinoids, and 1,25-dihydroxyvitamin D3. […] It is believed that this may enhance the immunogenicity of tumors in vivo.

[4] = system: PC3 cells; test: Growth on matrigel / in vitro invasion; format: cell-based, human; conditions: 800 µg/ml for 4 days, replated on matrigel, 8 days after plating
Procedure: Pictures of controls, taken after 1 and 8 days (A and B, respectively), show the characteristic growth pattern of untreated cells, i.e., formation of net-like structures composed of actively replicating cells, which eventually degraded the matrigel and formed monolayers on the plastic surface beneath.
Results scored 6-24 hours later.
It is known that PC3 cells are invasive in vitro and metastatic in recipient athymic mice. [Albini, A. et al. A rapid in vitro assay for quantitating the invasive potential of tumor cells. Cancer Res. 47:3239-3245 (1987)]. The invasiveness of PC3 cells which is indicative of their malignant phenotype can be assessed by their ability to degrade and cross tissue barriers such as matrigel, a reconstituted basement membrane. […] In Fig. 7, pictures of controls taken after 1 and 8 days, A and B, respectively, shown the characteristic growth pattern of untreated cells, i.e., formation of net-like structures composed of actively replicating cells which eventually degraded the matrigel and formed monolayers on the plastic surface beneath. […] The formation of small noninvasive colonies on top of the matrigel is indicative of loss of malignant properties following treatment. Results of the in vitro invasion assays correlate highly with the biological behavior of cells in vivo.

Q: With `O=C([O-])Cc1ccccc1.[Na+]` [NaPA, sodium phenylacetate] as the compound, how does the IC50 ([1]; DU-145, growth arrest, read-out: IC50) read?
A: Its IC50 is 600 to 800 mg/L.

Q: What about the inhibition at 800 µg/mL ([1]; DU-145, read-out: % Inhibition by NaPA 0.8 mg/ml, 0.8 mg/ml) of the same compound?
A: Its inhibition at 800 µg/mL is at least 50%.

Q: What about the IC50 ([1]; DU-145, read-out: concentration causing about 50% inhibition of growth) of the same compound?
A: The IC50 was 400 to 800 mg/L.

Q: What about the IC50 [2] of the same compound?
A: The IC50 was 600 to 800 mg/L.

Q: And the viability at 800 µg/mL ([2]; PC-3)?
A: Its viability at 800 µg/mL is over 95%.

Q: And the activity at 800 µg/mL ([2]; PC-3, read-out: Growth)?
A: The activity at 800 µg/mL was 59.6%.

Q: And the IC50 ([2]; PC-3, read-out: concentration causing about 50% inhibition of growth)?
A: The IC50 was 400 to 800 mg/L.

Q: And the inhibition at 800 µg/mL ([2]; read-out: % Inhibition by NaPA 0.8 mg/ml)?
A: The inhibition at 800 µg/mL was at least 50%.

Q: And the “time to decline in the amounts of myc mRNA” value [3]?
A: The value was at most 4 h.

Q: And the “degradation of the matrigel barrier” value [4]?
A: The value was “failed to degrade the matrigel barrier”.
